Measured values: US4668627A, “Novel antibiotic compound” (Kureha Kagaku Kogyo Kabushiki Kaisha, priority 1982, dated 1987)
≈ marks a conversion by molar mass, not a printed value.

How the values were obtained:
[1] = test system: Staphylococcus aureus 209 p; assay: MIC, agar dilution, nutrient agar medium; assay type: cell-based
[2] = test system: Bacillus subtilis PCI 219; assay: MIC, agar dilution, nutrient agar medium; assay type: cell-based; conditions: PCI219
[3] = test system: Streptococcus pyogenes IFO 3340; assay: MIC, agar dilution, nutrient agar medium; assay type: cell-based; conditions: IFO3340
[4] = test system: Micrococcus luteus PCI 1001; assay: MIC, agar dilution, nutrient agar medium; assay type: cell-based; conditions: PCI1001
[5] = test system: Corynebacterium faciens IAM 1079; assay: MIC, agar dilution, nutrient agar medium; assay type: cell-based; conditions: IAM1079
[6] = test system: Corynebacterium equi IFO 3730; assay: MIC, agar dilution, nutrient agar medium; assay type: cell-based; conditions: Rhodococcus (subgen. Prescottella) equi, IFO3730
[7] = test system: Micrococcus lysodeikticus; assay: MIC, agar dilution, nutrient agar medium; assay type: cell-based; conditions: Micrococcus luteus
[8] = test system: Mycobacterium avium IFO 3082; assay: MIC, agar dilution, nutrient agar medium; assay type: cell-based; conditions: IFO3082
[9] = test system: Escherichia coli K-12 IAM 1264; assay: MIC, agar dilution, nutrient agar medium; assay type: cell-based; conditions: IAM1264
[10] = test system: Klebsiella pneumoniae IFO 12015; assay: MIC, agar dilution, nutrient agar medium; assay type: cell-based; conditions: IFO12015
[11] = test system: Citrobacter freundii IFO 12681; assay: MIC, agar dilution, nutrient agar medium; assay type: cell-based; conditions: IFO12681
[12] = test system: Proteus vulgaris IFO 3167; assay: MIC, agar dilution, nutrient agar medium; assay type: cell-based; conditions: IFO3167
[13] = test system: Proteus mirabilis IFO 3849; assay: MIC, agar dilution, nutrient agar medium; assay type: cell-based; conditions: IFO3849
[14] = test system: Proteus morganii IFO 3168; assay: MIC, agar dilution, nutrient agar medium; assay type: cell-based; conditions: Morganella morganii, IFO3168
[15] = test system: Proteus inconstans IFO 12930; assay: MIC, agar dilution, nutrient agar medium; assay type: cell-based; conditions: Providencia alcalifaciens, IFO12930
[16] = test system: Pseudomonas aeruginosa IFO 3080; assay: MIC, agar dilution, nutrient agar medium; assay type: cell-based; conditions: IFO3080
[17] = test system: Pseudomonas fluorescens IFO 3903; assay: MIC, agar dilution, nutrient agar medium; assay type: cell-based; conditions: IFO3903
[18] = test system: Pseudomonas putida T-2; assay: MIC, agar dilution, nutrient agar medium; assay type: cell-based; conditions: T2
[19] = test system: Pseudomonas ovalis; assay: MIC, agar dilution, nutrient agar medium; assay type: cell-based; conditions: Pseudomonas putida
[20] = test system: Vibrio-metshnikov IAM 1039; assay: MIC, agar dilution, nutrient agar medium; assay type: cell-based
[21] = test system: Vibrio tyrogenes IAM 1080; assay: MIC, agar dilution, nutrient agar medium; assay type: cell-based; conditions: IAM1080
[22] = test system: Salmonella abortusequi ATCC 9842; assay: MIC, agar dilution, nutrient agar medium; assay type: cell-based; conditions: Salmonella enterica, ATCC9842
[23] = test system: Salmonella anatum 1; assay: MIC, agar dilution, nutrient agar medium; assay type: cell-based; conditions: Salmonella enterica
[24] = test system: Aerobacter aerogenes ATCC 8724; assay: MIC, agar dilution, nutrient agar medium; assay type: cell-based; conditions: Klebsiella aerogenes, ATCC8724
[25] = test system: Erwinia aroidae IAM 1068; assay: MIC, agar dilution, nutrient agar medium; assay type: cell-based; conditions: IAM1068
[26] = test system: Xanthomonas oryzae IAM 1657; assay: microbe, parasite or virus in culture; assay type: cell-based; conditions: IAM1657
[27] = test system: Serratia marcescens IAM 1065; assay: MIC, agar dilution, nutrient agar medium; assay type: cell-based; conditions: IAM1065
[28] = test system: Aspergillus niger IFO 6342; assay: MIC, agar dilution, nutrient agar medium; assay type: cell-based; conditions: IFO6342
[29] = test system: Aspergillus fumigatus IAM 2155; assay: MIC, agar dilution, nutrient agar medium; assay type: cell-based; conditions: IAM2155
[30] = test system: Aspergillus oryzae IAM 2732; assay: MIC, agar dilution, nutrient agar medium; assay type: cell-based; conditions: IAM2732
[31] = test system: Penicillium funiculosum IFO 6345; assay: MIC, agar dilution, nutrient agar medium; assay type: cell-based; conditions: Talaromyces funiculosus, IFO6345
[32] = test system: Saccharomyces cerevisiae; assay: MIC, agar dilution, nutrient agar medium; assay type: cell-based
[33] = test system: Candida albicans IAM 4905; assay: MIC, agar dilution, nutrient agar medium; assay type: cell-based; conditions: IAM4905
[34] = test system: Trichophyton rubrum IFO 5467; assay: MIC, agar dilution, nutrient agar medium; assay type: cell-based; conditions: IFO5467
[35] = test system: Trichophyton interdigitale; assay: MIC, agar dilution, nutrient agar medium; assay type: cell-based
[36] = test system: Epidermophyton floccosum IFO 9045; assay: MIC, agar dilution, nutrient agar medium; assay type: cell-based; conditions: IFO9045
[37] = test system: Microsporum gypseum IFO 5948; assay: MIC, agar dilution, nutrient agar medium; assay type: cell-based; conditions: Nannizzia gypsea, IFO5948
[38] = test system: Bacteroides fragilis; assay: MIC, agar dilution, nutrient agar medium; assay type: cell-based
[39] = test system: Eubacterium aerofaciens; assay: MIC, agar dilution, nutrient agar medium; assay type: cell-based; conditions: Collinsella aerofaciens
[40] = test system: Peptococcus aerogenes; assay: MIC, agar dilution, nutrient agar medium; assay type: cell-based; conditions: Peptoniphilus asaccharolyticus
[41] = test system: Peptostreptococcus micros; assay: MIC, agar dilution, nutrient agar medium; assay type: cell-based; conditions: Parvimonas micra
[42] = test system: Peptostreptococcus parvulus; assay: MIC, agar dilution, nutrient agar medium; assay type: cell-based; conditions: Lancefieldella parvula
[43] = test system: Bifidobacterium adolescentis; assay: MIC, agar dilution, nutrient agar medium; assay type: cell-based
[44] = test system: Fusobacterium necrophorum; assay: MIC, agar dilution, nutrient agar medium; assay type: cell-based
[45] = test system: Lactobacillus acidophilus; assay: MIC, agar dilution, nutrient agar medium; assay type: cell-based
[46] = test system: mouse; assay: acute toxicity to mouse, intraperitoneal; assay type: in vivo; conditions: intraperitoneally, 100 mg/kg
[47] = test system: various gram-positive and gram-negative bacteria; assay: antibacterial activity (general statement); assay type: cell-based
[48] = solubility in organic solvents; assay type: physicochemical

SMILES: [C-]#[N+]C12CC3(/C=C/C(=O)O)OC3C1O2 (stereo not shown) [Antibiotic No. 2188, 3-(6-isocyano-3,7-dioxatricyclo[4.1.0.0^2,4]hept-4-yl)propenoic acid]
- MIC [1]: 6.25 µg/mL (≈ 32.4 µM)
- MIC [2]: 12.5 µg/mL (≈ 64.7 µM)
- MIC [3]: 6.25 µg/mL (≈ 32.4 µM)
- MIC [4]: 6.25 µg/mL (≈ 32.4 µM)
- MIC [5]: 12.5 µg/mL (≈ 64.7 µM)
- MIC [6]: 6.25 µg/mL (≈ 32.4 µM)
- MIC [7]: 6.25 µg/mL (≈ 32.4 µM)
- MIC [8]: 12.5 µg/mL (≈ 64.7 µM)
- MIC [9]: 12.5 µg/mL (≈ 64.7 µM)
- MIC [10]: 50 µg/mL (≈ 259 µM)
- MIC [11]: 12.5 µg/mL (≈ 64.7 µM)
- MIC [12]: 12.5 µg/mL (≈ 64.7 µM)
- MIC [13]: 50 µg/mL (≈ 259 µM)
- MIC [14]: 12.5 µg/mL (≈ 64.7 µM)
- MIC [15]: 50 µg/mL (≈ 259 µM)
- MIC [16]: 100 µg/mL (≈ 518 µM)
- MIC [17]: 12.5 µg/mL (≈ 64.7 µM)
- MIC [18]: 6.25 µg/mL (≈ 32.4 µM)
- MIC [19]: > 100 µg/mL
- MIC [20]: 1.6 µg/mL (≈ 8.28 µM)
- MIC [21]: 3.1 µg/mL (≈ 16 µM)
- MIC [22]: 12.5 µg/mL (≈ 64.7 µM)
- MIC [23]: 12.5 µg/mL (≈ 64.7 µM)
- MIC [24]: 50 µg/mL (≈ 259 µM)
- MIC [25]: 25 µg/mL (≈ 129 µM)
- MIC [26]: 50 µg/mL (≈ 259 µM)
- MIC [27]: > 100 µg/mL
- MIC [28]: > 200 µg/mL
- MIC [29]: 100 µg/mL (≈ 518 µM)
- MIC [30]: > 200 µg/mL
- MIC [31]: 200 µg/mL (≈ 1040 µM)
- MIC [32]: > 200 µg/mL
- MIC [33]: > 200 µg/mL
- MIC [34]: 50 µg/mL (≈ 259 µM)
- MIC [35]: 100 µg/mL (≈ 518 µM)
- MIC [36]: 50 µg/mL (≈ 259 µM)
- MIC [37]: 100 µg/mL (≈ 518 µM)
- MIC [38]: 50 µg/mL (≈ 259 µM)
- MIC [39]: > 200 µg/mL
- MIC [40]: 25 µg/mL (≈ 129 µM)
- MIC [41]: 25 µg/mL (≈ 129 µM)
- MIC [42]: 50 µg/mL (≈ 259 µM)
- MIC [43]: 200 µg/mL (≈ 1040 µM)
- MIC [44]: 50 µg/mL (≈ 259 µM)
- MIC [45]: 200 µg/mL (≈ 1040 µM)
- acute toxicity [46]: no acute toxicity
- antibacterial activity [47]: shows an antibacterial activity against various gram-positive and gram-negative bacteria
- solubility ([48]; hexane and petroleum ether): insoluble
- solubility ([48]; methanol, ethanol, acetone, ethyl acetate, chloroform and benzene): soluble
